From article PMC6716783, “Agonist-induced membrane nanodomain clustering drives GLP-1 receptor responses in pancreatic beta cells” (PLoS Biology, 2019)
Ends that are not written are not given here.

Tests used:
SNAP-GLP-1R [1] = test: Palmitoylation assay, SNAP-GLP-1R; format: cell-based, human
Method: For the detection of palmitoylated GLP-1Rs, cells were stimulated with 100 nM of the indicated agonist for 10 min and, when appropriate, pretreated with 10 μM BETP for 5 min (and throughout the agonist stimulation period) or overnight with 200 μM of the palmitoylation inhibitor 2-BP. Isolation of palmitoylated proteins was performed with the CAPTUREome S-Palmitoylated Protein Kit (Badrilla), following the manufacturer’s instructions. […] Key steps include blocking of free thiol groups with a blocking reagent, cleavage of thioester linkages to release the palmitate group, and capture of newly liberated thiols with the CAPTUREome capture resin. Briefly, cells were lysed and free thiols blocked in the manufacturer’s blocking buffer at 40 °C for 4 h with constant vortexing. Proteins were then precipitated with cold acetone for 20 min at −20 °C. Following centrifugation at 16,000g for 5 min, the pellet was extensively washed with 70% cold acetone and resuspended in the manufacturer’s binding buffer. Approximately 10% of the soluble lysate was saved as the input fraction (IF). Prewashed CAPTUREome capture resin was added to the lysates. To this mixture, either the thioester cleavage or the acyl-preservation reagents were added. Resins were washed five times with the manufacturer’s binding buffer. […]

[2] = test system: wt or C438A SNAP-GLP-1R in HEK293 cells; test: Internalization of C438A versus wt SNAP-GLP-1R with BETP (confocal, DERET); format: cell-based, human; conditions: 100 nM exendin-phe1, 10 μM BETP
GLP-1R [3] = conditions: cited from earlier work
GLP-1R [4] = conditions: cited from earlier work; remark: listed apart in the source
Description: To further elucidate the mechanism by which BETP potentiates GLP-1R responses, we examined the relative contributions of GLP-1R palmitoylation, β-arrestins, and cholesterol-dependent membrane compartmentalization to its effect.

[5] = test system: cellular cholesterol in HEK293, CHO-K1, INS-1 832/3, MIN6B1 cells; test: Cholesterol depletion (filipin / Amplex Red); format: cell-based; parameters: unit not given here
Method: Cells were treated with or without MβCD as above. For cholesterol labeling, filipin staining was carried out with the Cell-Based Cholesterol Assay Kit (Abcam). For quantification of cholesterol levels, lipid was extracted using butanol as described. Briefly, the washed cell pellet was left in 250 μl butanol overnight at 4 °C, and the organic layer was aspirated, placed in a microplate, and allowed to evaporate to dryness. The lipid film was redissolved in 1% Triton X-100, and cholesterol concentration was determined using the Amplex Red Cholesterol Assay Kit (Thermo Fisher), followed by normalization to protein content of the cell pellet determined by BCA assay.

[6] = test system: human GLP-1R (SNAP-GLP-1R) in MIN6B1 cells; test: SNAP-GLP-1R partitioning into detergent-resistant (raft) membrane fractions; format: cell-based; conditions: 2 min stimulation, versus vehicle
[7] = test system: SNAP-GIPR in CHO-K1 cells; conditions: 100 nM GIP, 10 min
[8] = test system: SNAP-GIPR in HEK293 cells; conditions: GIP 100 nM
Description: These concentrations were selected because they provided optimum signal intensity at both measurement wavelengths. […] TR-FRET was sequentially measured after agonist addition.

[9] = target: T1, endogenous GLP-1R in INS-1 832/3 cells (Rattus norvegicus, UniProt P32301); test: HTRF cAMP, wt INS-1 832/3 cells; format: cell-based; conditions: MβCD; wild-type INS-1 832/3 cells
T1 construct: endogenous in cells
T1 sequence (P32301 22-463): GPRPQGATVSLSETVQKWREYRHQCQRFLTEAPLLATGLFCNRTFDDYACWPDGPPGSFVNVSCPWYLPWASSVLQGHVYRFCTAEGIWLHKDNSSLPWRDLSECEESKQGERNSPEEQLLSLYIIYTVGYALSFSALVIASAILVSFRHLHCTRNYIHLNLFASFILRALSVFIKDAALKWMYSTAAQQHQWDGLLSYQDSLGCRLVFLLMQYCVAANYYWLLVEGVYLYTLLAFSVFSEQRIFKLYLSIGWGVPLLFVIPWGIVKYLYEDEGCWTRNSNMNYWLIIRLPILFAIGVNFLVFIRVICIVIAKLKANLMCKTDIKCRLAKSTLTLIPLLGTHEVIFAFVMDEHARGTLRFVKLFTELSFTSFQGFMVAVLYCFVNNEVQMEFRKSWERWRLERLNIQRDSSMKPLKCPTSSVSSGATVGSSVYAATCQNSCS
Method: Cells were treated in white microplates with agonist, with or without isobutylmethylxanthine (IBMX) as indicated to inhibit phosphodiesterases, for the indicated period of time before total cellular cAMP determination by HTRF (Cisbio cAMP Dynamic 2).

SNAP-GLP-1R [10] = test: SNAP-GLP-1R internalization by confocal microscopy; format: cell-based, human
[11] = test system: SNAP-GLP-1R in HEK293 cells; test: NR12S TR-FRET (liquid-ordered localization); format: cell-based, human; conditions: for concentration response with MβCD (sheet S2H): agonist not named
[12] = test system: SNAP-GIPR in INS-1 832/3 cells; test: SNAP-GIPR internalization by confocal microscopy; format: cell-based; conditions: MβCD 10 mM 1 h; 100 nM GIP 1 h
Method: For confocal microscopy, cells were labeled at 37 °C with 1 μM of the indicated SNAP-tag fluorescent probe (New England Biolabs) in full media, stimulated with agonists for the indicated times, fixed in 4% paraformaldehyde, mounted in Prolong Diamond antifade reagent with 4,6-diamidino-2-phenylindole (Life Technologies), imaged with a Zeiss LSM-780 inverted confocal laser-scanning microscope in a ×63/1.4 numerical aperture oil-immersion objective from the Facility for Imaging by Light Microscopy (FILM) at Imperial College London, and analyzed in Fiji. […] Images were acquired with an ORCA-Flash 4.0 camera (Hamamatsu) and Metamorph software (Molecular Devices), and colocalization was measured by Manders’ coefficient analyzed using Coloc 2 plugin in Fiji.

[13] = test system: SNAP-GLP-1R in HEK293 cells; test: Surface SNAP-GLP-1R labeling by Lumi4-Tb; format: cell-based, human; conditions: MβCD treatment

**Q.** For `CC[S+]([O-])c1nc(-c2cccc(OCc3ccccc3)c2)cc(C(F)(F)F)n1` (centres unmarked) [BETP, 4-(3-benzyloxyphenyl)-2-ethylsulfinyl-6-(trifluoromethyl)pyrimidine], which “effect on exendin-4-induced palmitoylation (in words)” value (SNAP-GLP-1R [1]; CHO SNAP-GLP-1R cells, BETP 10 μM, 100 nM exendin-4 10 min) is on record?
**A.** The value was “significant reduction in exendin-4-induced palmitoylation”.

**Q.** And the “effect of BETP on internalization of C438A (in words)” value [2]?
**A.** Its value is “comparable to that of wild-type receptors”.

**Q.** And the “potentiation of weak agonist GLP-1(9–36)NH2 (in words)” value (GLP-1R [3])?
**A.** The value was “markedly augment responses”.

**Q.** And the “potentiation of weak agonist oxyntomodulin (in words)” value (GLP-1R [3])?
**A.** The value was “markedly augment responses”.

**Q.** What about the “covalent binding site (in words)” value (GLP-1R [4]) of the same compound?
**A.** The value was “covalently bind two intracellular GLP-1R cysteine residues (347 and 438”.

**Q.** With `CC(C)CCC[C@@H](C)[C@H]1CC[C@H]2[C@@H]3CC=C4C[C@@H](O)CC[C@]4(C)[C@H]3CC[C@]12C` [Chol] as the compound, how does the cellular cholesterol ([5]; CHO-K1, replicate 1) read?
**A.** The cellular cholesterol was 666.594.

**Q.** And the cellular cholesterol ([5]; CHO-K1, replicate 2)?
**A.** Its cellular cholesterol is 793.376.

**Q.** What about the cellular cholesterol ([5]; CHO-K1, replicate 3) of the same compound?
**A.** Its cellular cholesterol is 793.376.

**Q.** And the cellular cholesterol ([5]; HEK293, replicate 1)?
**A.** The cellular cholesterol was 549.236.

**Q.** What about the cellular cholesterol ([5]; HEK293, replicate 2) of the same compound?
**A.** Its cellular cholesterol is 621.505.

**Q.** And the cellular cholesterol ([5]; HEK293, replicate 3)?
**A.** Its cellular cholesterol is 643.5.

**Q.** And the cellular cholesterol ([5]; INS-1 832/3, replicate 1)?
**A.** The cellular cholesterol was 653.543.

**Q.** What about the cellular cholesterol ([5]; INS-1 832/3, replicate 2) of the same compound?
**A.** Its cellular cholesterol is 706.063.

**Q.** And the cellular cholesterol ([5]; INS-1 832/3, replicate 3)?
**A.** Its cellular cholesterol is 690.314.

**Q.** And the cellular cholesterol ([5]; MIN6B1, replicate 1)?
**A.** The cellular cholesterol was 989.644.

**Q.** And the cellular cholesterol ([5]; MIN6B1, replicate 2)?
**A.** Its cellular cholesterol is 1174.28.

**Q.** What about the cellular cholesterol ([5]; MIN6B1, replicate 3) of the same compound?
**A.** The cellular cholesterol was 1186.59.

**Q.** For `CCCCCCCCCCCCCCCC(=O)O` [palmitate], which “GLP-1R palmitoylation (in words)” value (SNAP-GLP-1R [1]; MIN6B1 SNAP-GLP-1R cells, excess palmitate (200 μM palmitate/BSA overnight)) is on record?
**A.** Its value is “greatly enhanced”.

**Q.** For “GLP-1(7–36)NH2: endogenous GLP-1R agonist (HAEGTFTSDVSSYLEGQAAKEFIAWLVKGR-NH2; UniProt P01275 98-127, looked up)”, which “SNAP-GLP-1R raft recruitment (in words)” value [6] is on record?
**A.** Its value is “Increased enrichment of poly-glycosylated GLP-1Rs in membrane raft fractions”.

**Q.** Which results are given for “glucose-dependent insulinotropic polypeptide [GIP]”?
**A.** GIPR palmitoylation (in words) [7]: not further increased by GIP stimulation; SNAP-GIPR clustering (in words) [8]: no detectable increase upon GIP addition

**Q.** For methyl-β-cyclodextrin [MβCD], which “effect on cAMP production (in words)” value [9] is on record?
**A.** Its value is “reduced by MβCD”.

**Q.** And the “effect on BETP-induced internalization of exendin-phe1-stimulated SNAP-GLP-1R (in words)” value (SNAP-GLP-1R [10]; MIN6B1, MβCD 10 mM 1 h preincubation)?
**A.** Its value is “inhibited this process to the same extent as for exendin-4”.

**Q.** And the “effect on exendin-4-induced internalization (in words)” value (SNAP-GLP-1R [10]; MβCD 10 mM 1 h, 100 nM exendin-4, 15 min, beta and nonbeta cells)?
**A.** The value was “marked inhibition of exendin-4-induced SNAP-GLP-1R internalization”.

**Q.** What about the “effect on SNAP-GLP-1R endocytosis (in words)” value (SNAP-GLP-1R [10]; MβCD, wt and β-arrestin-less HEK293, 100 nM exendin-4, 15 min) of the same compound?
**A.** The value was “substantially inhibited by MβCD irrespective of β-arrestin status”.

**Q.** And the “effect on NR12S-linked TR-FRET (in words)” value ([11]; MβCD, S2H)?
**A.** The value was “effective in reducing both basal and exendin-4-induced NR12S-linked increases in TR-FRET”.

**Q.** What about the “concentration response with MβCD (sheet S2H)” value (shortened to “concentration response”) ([11]; log conc -6, replicate 1) of the same compound?
**A.** Its value is 33.0955.

**Q.** What about the “concentration response” value ([11]; log conc -6, replicate 2) of the same compound?
**A.** The value was 36.4407.

**Q.** What about the “concentration response” value ([11]; log conc -6, replicate 3) of the same compound?
**A.** Its value is 38.4994.

**Q.** And the “concentration response” value ([11]; log conc -6.47712, replicate 1)?
**A.** The value was 34.0966.

**Q.** What about the “concentration response” value ([11]; log conc -6.47712, replicate 2) of the same compound?
**A.** The value was 36.1901.

**Q.** What about the “concentration response” value ([11]; log conc -6.47712, replicate 3) of the same compound?
**A.** The value was 32.7645.

**Q.** What about the “concentration response” value ([11]; log conc -6.95424, replicate 2) of the same compound?
**A.** The value was 32.2917.

**Q.** And the “concentration response” value ([11]; log conc -6.95424, replicate 3)?
**A.** Its value is 33.0671.

**Q.** What about the “concentration response” value ([11]; log conc -7.43136, replicate 1) of the same compound?
**A.** The value was 24.1893.

**Q.** What about the “concentration response” value ([11]; log conc -7.43136, replicate 2) of the same compound?
**A.** The value was 31.793.

**Q.** What about the “concentration response” value ([11]; log conc -7.90849, replicate 2) of the same compound?
**A.** Its value is 35.2618.

**Q.** And the “concentration response” value ([11]; log conc -7.90849, replicate 3)?
**A.** Its value is 26.4888.

**Q.** What about the “concentration response” value ([11]; log conc -8.38561, replicate 3) of the same compound?
**A.** The value was 33.8275.

**Q.** What about the “concentration response” value ([11]; log conc -8.86273, replicate 1) of the same compound?
**A.** Its value is 30.8645.

**Q.** What about the “concentration response” value ([11]; log conc -8.86273, replicate 2) of the same compound?
**A.** Its value is 27.0998.

**Q.** And the “concentration response” value ([11]; log conc -8.86273, replicate 3)?
**A.** Its value is 36.96.

**Q.** And the “concentration response” value ([11]; log conc -10, replicate 1)?
**A.** The value was 23.1185.

**Q.** What about the “concentration response” value ([11]; log conc -10, replicate 2) of the same compound?
**A.** Its value is 30.0361.

**Q.** And the “concentration response” value ([11]; log conc -10, replicate 3)?
**A.** The value was 37.2206.

**Q.** What about the “effect on GIPR endocytosis (in words)” value [12] of the same compound?
**A.** Its value is “virtually abolished after MβCD treatment”.

**Q.** And the “effect on surface SNAP-GLP-1R expression (in words)” value [13]?
**A.** Its value is “did not alter receptor surface SNAP-GLP-1R expression”.

**Q.** And the cellular cholesterol ([5]; CHO-K1, replicate 1)?
**A.** The cellular cholesterol was 39.7439.

**Q.** What about the cellular cholesterol ([5]; CHO-K1, replicate 2) of the same compound?
**A.** Its cellular cholesterol is 158.5.

**Q.** What about the cellular cholesterol ([5]; CHO-K1, replicate 3) of the same compound?
**A.** Its cellular cholesterol is 99.7412.

**Q.** And the cellular cholesterol ([5]; HEK293, replicate 1)?
**A.** Its cellular cholesterol is 170.419.

**Q.** What about the cellular cholesterol ([5]; HEK293, replicate 2) of the same compound?
**A.** Its cellular cholesterol is 186.214.

**Q.** And the cellular cholesterol ([5]; HEK293, replicate 3)?
**A.** The cellular cholesterol was 179.148.

**Q.** And the cellular cholesterol ([5]; INS-1 832/3, replicate 1)?
**A.** The cellular cholesterol was 159.866.

**Q.** And the cellular cholesterol ([5]; INS-1 832/3, replicate 2)?
**A.** Its cellular cholesterol is 177.786.

**Q.** What about the cellular cholesterol ([5]; INS-1 832/3, replicate 3) of the same compound?
**A.** The cellular cholesterol was 167.411.

**Q.** And the cellular cholesterol ([5]; MIN6B1, replicate 1)?
**A.** Its cellular cholesterol is 202.183.

**Q.** What about the cellular cholesterol ([5]; MIN6B1, replicate 2) of the same compound?
**A.** Its cellular cholesterol is 224.442.

**Q.** What about the cellular cholesterol ([5]; MIN6B1, replicate 3) of the same compound?
**A.** The cellular cholesterol was 240.208.
